Test results as given in patent publication US11583556B2, “Modified cells and methods of therapy” (Regents of the University of Minnesota, priority 2015, dated 2023).

test system: HPRT; test: Validation of gRNAs in HEK293T cells, Surveyor digest and densitometry, HPRT site; format: cell-based, human; conditions: HPRT target gene site, 3 days
Procedure: (§1) HEK293T cells were plated out at a density of 1×10^5 cells per well in a 24 well plate. 150 uL of Opti-MEM medium was combined with 1.5 ug of gRNA plasmid, 1.5 ug of Cas9 plasmid. Another 150 uL of Opti-MEM medium was combined with 5 ul of Lipofectamine 2000 Transfection reagent (Invitrogen). The solutions were combined together and incubated for 15 minutes at room temperature. The DNA-lipid complex was added dropwise to wells of the 24 well plate. Cells were incubated for 3 days at 37° C. and genomic DNA was collected using the GeneJET Genomic DNA Purification Kit (Thermo Scientific). Activity of the gRNAs was quantified by a Surveyor Digest, gel electrophoresis, and densitometry (FIG. 60 and FIG. 61) (Guschin, D. Y., et al., “A Rapid and General Assay for Monitoring Endogenous Gene Modification,” Methods in Molecular Biology, 649: 247-256 (2010)).
(§2) The efficiencies of Cas9 in creating double strand break (DSB) with the assistance of different gRNA sequences were listed in Table 7. The percentage numbers in Table 7 indicated the percent of gene modifications in the sample.

Row | Substance | efficiency of Cas9/gRNA pair in creating double strand break (percent of gene modifications)
1 | HPRT gRNA#1: guide RNA to HPRT; sense oligo SEQ ID 5 CACCGCACGTGTGAACCAACCCGCC | 27.85% ^
2 | HPRT gRNA#2: guide RNA to HPRT; sense oligo SEQ ID 7 CACCGAAACAACAGGCCGGGCGGGT | 30.04% ^
3 | HPRT gRNA#3: guide RNA to HPRT; sense oligo SEQ ID 9 CACCGACAAAAAAATTAGCCGGGTG | <1%
4 | HPRT gRNA#4: guide RNA to HPRT; sense oligo SEQ ID 11 CACCGTAAATTTCTCTGATAGACTA | <5%
5 | HPRT gRNA#5: guide RNA to HPRT; sense oligo SEQ ID 13 CACCGTGTTTCAATGAGAGCATTAC | <1%
6 | HPRT gRNA#6: guide RNA to HPRT; sense oligo SEQ ID 15 CACCGGTCTCGAACTCCTGAGCTC | <5%

test system: AAVS1; test: Validation of gRNAs in HEK293T cells, Surveyor digest and densitometry, AAVS1 site; format: cell-based, human; conditions: AAVS1 target gene site, 3 days
Procedure: as §1
(§3) The percentage numbers in Table 7 indicated the percent of gene modifications in the sample.

Row | Substance | efficiency of Cas9/gRNA pair in creating double strand break (percent of gene modifications) [%]
7 | AAVS1 gRNA#1: guide RNA to AAVS1; sense oligo SEQ ID 19 CACCGTGGGGGTTAGACCCAATATC | 32.99
8 | AAVS1 gRNA#2: guide RNA to AAVS1; sense oligo SEQ ID 21 CACCGACCCCACAGTGGGGCCACTA | 27.10
9 | AAVS1 gRNA#5: guide RNA to AAVS1; sense oligo SEQ ID 27 CACCGCCGGCCCTGGGAATATAAGG | 27.55
10 | AAVS1 gRNA#6: guide RNA to AAVS1; sense oligo SEQ ID 29 CACCGCGGGCCCCTATGTCCACTTC | 39.62

test system: CTLA4; test: Validation of gRNAs in HEK293T cells, Surveyor digest and densitometry, CTLA4 site; format: cell-based, human; conditions: CTLA4 target gene site, 3 days
Procedure: as §1, §2

Row | Substance | efficiency of Cas9/gRNA pair in creating double strand break (percent of gene modifications) [%]
11 | CTLA4 gRNA#1: guide RNA to CTLA4; sense oligo SEQ ID 47 CACCGCCGGGTGACAGTGCTTCGGC | 40.96
12 | CTLA4 gRNA#2: guide RNA to CTLA4; sense oligo SEQ ID 49 CACCGTGCGGCAACCTACATGATG | 56.10
13 | CTLA4 gRNA#3: guide RNA to CTLA4; sense oligo SEQ ID 51 CACCGCTAGATGATTCCATCTGCAC | 39.33
14 | CTLA4 gRNA#4: guide RNA to CTLA4; sense oligo SEQ ID 53 CACCGAGGTTCACTTGATTTCCAC | 40.13
15 | CTLA4 gRNA#5: guide RNA to CTLA4; sense oligo SEQ ID 55 CACCGCCGCACAGACTTCAGTCACC | 15.90
16 | CTLA4 gRNA#6: guide RNA to CTLA4; sense oligo SEQ ID 57 CACCGCTGGCGATGCCTCGGCTGC | 36.93

test system: CCR5; test: Validation of gRNAs in HEK293T cells, Surveyor digest and densitometry, CCR5 site; format: cell-based, human; conditions: CCR5 target gene site, 3 days
Procedure: as §1, §2

Row | Substance | efficiency of Cas9/gRNA pair in creating double strand break (percent of gene modifications) [%]
17 | CCR5 gRNA#1: guide RNA to CCR5; sense oligo SEQ ID 61 CACCGACAATGTGTCAACTCTTGAC | 21.47
18 | CCR5 gRNA#2: guide RNA to CCR5; sense oligo SEQ ID 63 CACCGTCATCCTCCTGACAATCGAT | >60
19 | CCR5 gRNA#3: guide RNA to CCR5; sense oligo SEQ ID 65 CACCGGTGACAAGTGTGATCACTT | 55.98
20 | CCR5 gRNA#4: guide RNA to CCR5; sense oligo SEQ ID 67 CACCGACACAGCATGGACGACAGCC | 45.99
21 | CCR5 gRNA#5: guide RNA to CCR5; sense oligo SEQ ID 69 CACCGATCTGGTAAAGATGATTCC | 36.07
22 | CCR5 gRNA#6: guide RNA to CCR5; sense oligo SEQ ID 71 CACCGTTGTATTTCCAAAGTCCCAC | 33.17

test system: PD1; test: Validation of gRNAs in HEK293T cells, Surveyor digest and densitometry, PD1 site; format: cell-based, human; conditions: PD1 target gene site, 3 days
Procedure: as §1, §3

Row | Substance | efficiency of Cas9/gRNA pair in creating double strand break (percent of gene modifications) [%]
23 | PD1 gRNA#1: guide RNA to PD-1; sense oligo SEQ ID 33 CACCGCGGAGAGCTTCGTGCTAAAC | 10.83
24 | PD1 gRNA#2: guide RNA to PD-1; sense oligo SEQ ID 35 CACCGCCTGCTCGTGGTGACCGAAG | >60
25 | PD1 gRNA#4: guide RNA to PD-1; sense oligo SEQ ID 39 CACCGAGGCGGCCAGCTTGTCCGTC | 20.87
26 | PD1 gRNA#5: guide RNA to PD-1; sense oligo SEQ ID 41 CACCGCGTTGGGCAGTTGTGTGACA | 30.60
27 | PD1 gRNA#6: guide RNA to PD-1; sense oligo SEQ ID 43 CACCGACGGAAGCGGCAGTCCTGGC | 25.91
